Measured values as given in ChEMBL document CHEMBL1201862, “PubChem BioAssay data set” (2004).
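96-well plates; 48 h exposure; 5 concentrations. Endpoints by linear interpolation between flanking doses. Not reached: highest tested concentration assigned. The concentration for 50% growth inhibition is given as GI50.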 The source made the active and inactive calls. Cut-off read from the data, not from the text of the source: active = GI50 up to about 1.1 µM and inactive = higher.

Key:
Assay in all cases: inhibition of tumour cell growth, NCI panel, 48 h
NCI-H460 = system: NCI-H460
KM-20L2 = system: KM-20L2
T47D = system: T47D
SF-295 = system: SF-295
MDA-MB-231 = system: MDA-MB-231
SR = system: SR
NCI-H23 = system: NCI-H23
SK-MEL-28 = system: SK-MEL-28
U-251 = system: U-251
OVCAR-8 = system: OVCAR-8
Malme-3M = system: Malme-3M
SK-MEL-5 = system: SK-MEL-5
MCF7 = system: MCF7
UO-31 = system: UO-31
UACC-257 = system: UACC-257
Hs-578T = system: Hs-578T
MDA-N = system: MDA-N
HCT-116 = system: HCT-116
ACHN = system: ACHN
PC-3 = system: PC-3

Compound	GI50 (NCI-H460)	GI50 (KM-20L2)	GI50 (T47D)	GI50 (SF-295)	GI50 (MDA-MB-231)	GI50 (SR)	GI50 (NCI-H23)	GI50 (SK-MEL-28)	GI50 (U-251)	GI50 (OVCAR-8)	GI50 (Malme-3M)	GI50 (SK-MEL-5)	GI50 (MCF7)	GI50 (UO-31)	GI50 (UACC-257)	GI50 (Hs-578T)	GI50 (MDA-N)	GI50 (HCT-116)	GI50 (ACHN)	GI50 (PC-3)
CC1CSC(=S)N1C(=O)N1C(=S)SCC1C (stereo not given)	24.1 µM (inactive)	38.7 µM (inactive)	28.6 µM (inactive)	45.8 µM (inactive)	22.2 µM (inactive)	12.5 µM (inactive)	20.3 µM (inactive)	14.3 µM (inactive)	18.2 µM (inactive)	16.7 µM (inactive)	17.1 µM (inactive)	17 µM (inactive)	21.2 µM (inactive)	22.8 µM (inactive)	19.3 µM (inactive)	35.7 µM (inactive)	19.6 µM (inactive)	24.4 µM (inactive)	18.5 µM (inactive)	24.7 µM (inactive)
COc1cc([C@@H]2c3cc4c(cc3[C@@H](OC3OC5CO[C@@H](c6cccs6)OC5C(O)C3O)[C@H]3COC(=O)[C@H]23)OCO4)cc(OC)c1O (stereo not given in full)	0.0171 µM (active)	2.12 µM (inactive)	0.162 µM (active)	0.144 µM (active)	1.12 µM (active)	0.0117 µM (active)	0.406 µM (active)	1.66 µM (inactive)	0.147 µM (active)	0.538 µM (active)	0.656 µM (active)	0.548 µM (active)	0.038 µM (active)	4.35 µM (inactive)	1.86 µM (inactive)	0.42 µM (active)	1.03 µM (active)	0.885 µM (active)	0.173 µM (active)	1.11 µM (active)
